Laboratory results taken from patent publication US20100227853A1, “INHIBITORS OF CYCLIC AMP PHOSPHODIESTERASES” (Trustees of Boston College, priority 2008, published 2010).

Columns and labels:
PDE4A1 = biological target: T1, PDE4A1 (Mus musculus, UniProt O89084); test: 5FOA growth assay (high throughput screen, ED50) in fission yeast strain expressing PDE4A1; assay type: cell-based; conditions: for Composite Z score, PDE4A1: high throughput 5FOA growth screen, greater than 8.53 = statistically-significant inhibitor
T1 construct: targets used in the assays are full-length proteins (as opposed to simply the catalytic domain); expressed in transfected cells; host or cells: Schizosaccharomyces pombe, PDE gene integrated in place of cgs2
T1 sequence (O89084 1-610 isoform O89084-2): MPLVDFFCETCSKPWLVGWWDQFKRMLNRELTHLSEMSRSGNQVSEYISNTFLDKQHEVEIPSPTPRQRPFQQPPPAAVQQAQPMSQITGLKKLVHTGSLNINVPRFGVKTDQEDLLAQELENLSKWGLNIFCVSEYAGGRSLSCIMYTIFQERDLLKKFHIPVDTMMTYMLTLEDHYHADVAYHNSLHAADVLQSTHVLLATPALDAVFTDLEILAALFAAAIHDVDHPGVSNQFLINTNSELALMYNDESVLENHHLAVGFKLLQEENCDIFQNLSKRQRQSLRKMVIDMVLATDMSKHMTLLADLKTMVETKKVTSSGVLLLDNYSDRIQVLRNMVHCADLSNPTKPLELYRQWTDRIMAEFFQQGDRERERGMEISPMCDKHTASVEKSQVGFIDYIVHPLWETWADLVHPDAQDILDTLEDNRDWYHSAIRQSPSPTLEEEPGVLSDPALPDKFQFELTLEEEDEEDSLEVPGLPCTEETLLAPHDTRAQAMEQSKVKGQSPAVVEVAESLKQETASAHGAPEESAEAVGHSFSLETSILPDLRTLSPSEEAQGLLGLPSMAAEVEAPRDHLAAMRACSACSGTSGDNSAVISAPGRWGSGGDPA
Summary of the method: (§1)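 Fission yeast strains carrying mouse PDE4A1 or PDE4B3 and an fbp1-ura4 reporter were pregrown in EMM with 0.5–2.5 mM cAMP, then seeded at 0.5–4×10^5 cells/ml in 5FOA medium with compound. Growth was read as OD600 after 48 h at 30° C; composite Z scores were derived.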

PDE4B3 = biological target: T2, PDE4B3 (Mus musculus, UniProt Q8VBU5); test: 5FOA growth assay in fission yeast strain expressing PDE4B3; assay type: cell-based, Murine; conditions: for Composite Z score, PDE4B3: high throughput 5FOA growth screen
T2 construct: targets used in the assays are full-length proteins (as opposed to simply the catalytic domain); expressed in transfected cells; host or cells: Schizosaccharomyces pombe, PDE gene integrated in place of cgs2
T2 sequence (Q8VBU5 1-721): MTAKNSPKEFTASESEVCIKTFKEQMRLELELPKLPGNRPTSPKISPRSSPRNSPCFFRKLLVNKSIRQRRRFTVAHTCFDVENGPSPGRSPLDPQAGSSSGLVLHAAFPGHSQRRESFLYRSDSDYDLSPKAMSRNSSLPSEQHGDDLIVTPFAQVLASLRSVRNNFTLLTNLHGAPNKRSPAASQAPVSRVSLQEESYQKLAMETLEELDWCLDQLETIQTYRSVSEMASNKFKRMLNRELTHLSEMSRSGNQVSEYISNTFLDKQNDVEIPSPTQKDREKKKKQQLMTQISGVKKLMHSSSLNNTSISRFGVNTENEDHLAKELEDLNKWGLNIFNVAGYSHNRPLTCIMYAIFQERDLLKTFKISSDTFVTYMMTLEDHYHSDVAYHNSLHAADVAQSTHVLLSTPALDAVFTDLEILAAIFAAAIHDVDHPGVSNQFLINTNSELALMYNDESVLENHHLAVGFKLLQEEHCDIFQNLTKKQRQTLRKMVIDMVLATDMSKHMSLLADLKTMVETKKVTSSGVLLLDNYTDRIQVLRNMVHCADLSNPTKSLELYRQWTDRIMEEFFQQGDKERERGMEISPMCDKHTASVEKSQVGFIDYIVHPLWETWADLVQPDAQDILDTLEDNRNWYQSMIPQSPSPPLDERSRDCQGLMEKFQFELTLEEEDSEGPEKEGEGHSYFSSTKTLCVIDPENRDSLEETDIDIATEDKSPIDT
Summary of the method: as §1

Composite Z score, PDE4A1 (PDE4A1) | Composite Z score, PDE4B3 (PDE4B3) | Compound | further results
−1.628 | 0.0838 | c1csc(CCNc2ncnc3sc4c(c23)CCC4)c1 [Compound 2005M12] | –
−0.629 | 33.162 | Cc1c(C(=O)N(C)Cc2ccccc2)sc2ncnc(N3CCN(c4ccccc4)CC3)c12 [Compound 2041G21] | –
−1.395 | 0.0615 | O=C(/C=C/c1ccccc1)Nc1ncnc2sc3c(c12)CCC3 [Compound 2008K11] | –
3.1355 | 4.66 | CCOC(CNc1nc(C)nc2sc3c(c12)CCCC3)OCC [Compound 2040D04] | –
3.0133 | 1.7278 | COc1cc(OC)c(NC(=O)c2sc3ncnc(N4CCCCC4C)c3c2C)cc1Cl (stereo not drawn) [Compound 2040J10] | –
19.619 | 4.5126 | COc1cccc(NC(=O)c2sc3ncnc(N4CCc5ccccc5C4)c3c2C)c1 [Compound 2041K21] | –
34.225 | 35.319 | O=C(Nc1ncnc2sc3c(c12)CCCCC3)c1ccc(F)cc1 [Compound 2012F09] | –
3.5005 | 0.9277 | Cc1c(C(=O)NCCC(C)C)sc2ncnc(N3CCOCC3)c12 [Compound 2040F13] | –
14.925 | −1.056 | Cc1c(C(=O)NCCC2CCCCC2)sc2ncnc(N3CCCCC3C)c12 (stereo not drawn) [Compound 2040H10] | –
1.67 | −0.543 | Cc1cc(C)c(C)c(S(=O)(=O)N2CCN(c3ncnc4sc5c(c34)CCCC5)CC2)c1C [Compound 2012L13] | –
32.257 | 43.053 | COc1ccc(CCNc2ncnc3sc4c(c23)CCCC4)cc1 [Compound 2012B19] | –
0.0978 | 0.3145 | CCCCN(CC)C(=O)c1sc2ncnc(N3CCN(c4ccc(OC)cc4)CC3)c2c1C [Compound 2007H06] | –
0.2389 | 0.62 | CC1CC(=O)N(c2ncnc3sc4c(c23)CCCC4)N1 (stereo not drawn) [2054 E16] | –
2.4965 | 0.936 | OCCNc1ncnc2sc3c(c12)CCCC3 [Compound 2051H22] | –
0.2744 | 7.48 | Cc1c(C(=O)N2CCCCCC2)sc2ncnc(N3CCN(c4ccccc4)CC3)c12 [Compound 2041I21] | –
1.1862 | −0.998 | c1nc(NCCCN2CCOCC2)c2c3c(sc2n1)CCCC3 [Compound 2051N22] | –
11.225 | 16.5 | Cc1nc(N2CCCCC2)c2c(C)c(C(=O)Nc3cccc(C(F)(F)F)c3)sc2n1 [Compound 2040F10] | –
2.8 | −0.716 | O=C(O)CCNc1ncnc2sc3c(c12)CCCC3 [Compound 2012O16] | –
22.267 | 85.067 | CCN(CC)c1ncnc2sc3c(c12)CCCC3 [BC44] | –

More lines, now with the values behind:

Compound | Composite Z score, PDE4A1 (PDE4A1) | Composite Z score, PDE4B3 (PDE4B3) | further results
CCNc1nc(SCC(=O)NC(=O)NCc2ccccc2)nc2sc3c(c12)CCN(C)C3 [Compound 2054N05] | −0.307 | 0.0285 | –
CCN(CC)c1ncnc2sc(C(=O)N(C)C3CCCCC3)c(C)c12 [Compound 2040J12] | 7.0857 | 5.3667 | –
Cc1c(C(=O)Nc2ccc(F)cc2F)sc2ncnc(N(C)c3ccccc3)c12 [Compound 58-9] | 25.972 | 78.662 | –
COc1ccc2c(c1)[C@@]1(C)CCC[C@](C)(CO)C1CC2 (stereo partly drawn) [Compound 2067M03] | – | – | 2 Assay (2 uM), 4A1 (PDE4A1; PDE 4A1): 6.63; 1 Assay (20 uM) 4A1 (PDE4A1; PDE 4A1): 11567; 2 Assay (2 uM), 4B3 (PDE4B3; PDE 4B3): 19.00; 1 Assay (20 uM) 4B3 (PDE4B3; PDE 4B3): 13.34
CCc1ccc2c(c1)c1nc3ccccc3nc1n2CC [2015, P06] | – | – | 1 Assay (20 uM) 4A1 (PDE4A1; PDE 4A1): 23.52 ND ND ND ND; 1 Assay (20 uM) 4B3 (PDE4B3; PDE 4B3): 0.13 ND ND ND ND
COC(=O)C1=C(C)N(C2CCCCC2)C(=O)/C1=C\c1cccs1 [Compound 22] | – | – | 2 Assay (2 uM), 4A1 (PDE4A1): 27.01; 2 Assay (2 uM), 4B3 (PDE4B3): 37.54; 1 Assay (20 uM) 4B3 (PDE4B3): 70.26
C=Cn1c2ccccc2c2nc3ccccc3nc21 [2033, H06] | – | – | 1 Assay (20 uM) 4A1 (PDE4A1; PDE 4A1): 29.62 ND ND ND ND; 1 Assay (20 uM) 4B3 (PDE4B3; PDE 4B3): 103.11 ND ND ND ND
Cc1ccc2c(c1)CCC1CC(=O)CC[C@]21C (stereo partly drawn) [Compound 2158J12] | – | – | 2 Assay (2 uM), 4A1 (PDE4A1; PDE 4A1): 2.18; 1 Assay (20 uM) 4A1 (PDE4A1; PDE 4A1): 81.97; 2 Assay (2 uM), 4B3 (PDE4B3; PDE 4B3): 8.18; 1 Assay (20 uM) 4B3 (PDE4B3; PDE 4B3): 37.13
COC(=O)C1=C(C)N(c2ccccc2)/C(=C/c2cccs2)C1=O [2008, K19] | – | – | 1 Assay (20 uM) 4B3 (PDE4B3): −0.61 ND ND ND ND
CCNc1nc(SCC(=O)OCC)nc2sc3c(c12)CCC(C)C3 (stereo not drawn) [Compound 2053H16] | 3.7863 | 9.0572 | –
Cc1ccc2c(c1)c1nc3ccccc3nc1n2C(C)C [Compound 41] | – | – | 1 Assay (20 uM) 4A1 (PDE4A1; PDE 4A1): 106.90; 1 Assay (20 uM) 4B3 (PDE4B3; PDE 4B3): 200.51
CCN(CC)c1nc(C)nc2sc(C(=O)N3CCCCCC3)c(C)c12 [Compound 2040N12] | 7.3705 | 12.239 | –
CCOC(=O)c1sc2nc(C)nc(N3CCC(C)CC3)c2c1C [Compound 2007D06] | −0.396 | 0.2826 | –
CCN(CC)c1nc(C)nc2sc(C(=O)Nc3cc(Cl)ccc3OC)c(C)c12 [Compound 2040L12] | 8.6742 | 3.2214 | –
CCOC(=O)c1ccccc1NC(=O)c1sc2nc(C)nc(N(CC)CC)c2c1C [Compound 2040P12] | 12.157 | 1.0041 | –
CCOC(=O)c1sc2nc(C)nc(N(C)Cc3ccccc3)c2c1C [Compound 2007L04] | 0.6949 | 0.2682 | –
Cc1sc2ncnc(Nc3ccccc3)c2c1C [BC64] | 24.925 | 0.3426 | EC50 (PDE4A1; value marked (m), OD600 0.6, read-out: ED50 for 5FOA growth assays, PDE4A1 (m)): 20 µM
COC(=O)C1=C(C)N(c2ccc(C(C)C)cc2)C(=O)/C1=C\c1ccco1 [2008, 019] | – | – | 1 Assay (20 uM) 4B3 (PDE4B3): −2.99 ND ND ND ND
COc1ccc(NC(=O)c2sc3nc(C)nc(N(C)c4ccc(C(C)C)cc4)c3c2C)c(OC)c1 [Compound 2041I04] | 5.2983 | −0.545 | –
COC(=O)C1/C(=C/c2cccc(OC)c2O)C(=O)N(c2ccccc2F)C1C (stereo not drawn) [2008, C21] | – | – | 1 Assay (20 uM) 4B3 (PDE4B3): 24.16 ND ND ND ND
